The results in this text go back to patent publication US5100910A, “Aryl substituted tetrazole derivatives, and application thereof in therapeutics” (Delalande S.A., priority 1988, dated 1992).

In data set [1] the target is T1, MAO-B (Rattus norvegicus, UniProt P19643).
T1 construct: using, as enzyme source, a mitochrondrial suspension of the brain of a rat; from tissue; host or cells: rat brain, mitochondrial suspension
T1 sequence (P19643 1-520): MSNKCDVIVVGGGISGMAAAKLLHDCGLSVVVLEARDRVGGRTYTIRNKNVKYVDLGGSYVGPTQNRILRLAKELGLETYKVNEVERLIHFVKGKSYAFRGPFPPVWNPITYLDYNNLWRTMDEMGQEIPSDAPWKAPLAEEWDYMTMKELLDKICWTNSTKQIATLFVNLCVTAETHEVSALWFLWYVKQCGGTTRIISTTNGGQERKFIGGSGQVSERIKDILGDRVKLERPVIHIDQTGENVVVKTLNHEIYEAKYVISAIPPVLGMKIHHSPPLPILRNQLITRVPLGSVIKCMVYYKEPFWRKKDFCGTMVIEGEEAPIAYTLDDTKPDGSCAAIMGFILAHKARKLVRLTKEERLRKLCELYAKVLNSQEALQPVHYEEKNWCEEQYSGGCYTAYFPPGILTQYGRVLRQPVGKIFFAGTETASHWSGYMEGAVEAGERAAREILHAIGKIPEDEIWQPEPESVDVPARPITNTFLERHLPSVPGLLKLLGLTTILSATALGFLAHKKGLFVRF
Kind of data set: In vitro inhibition of monoamine oxidase B (substrate phenylethylamine, PEA; mitochondrial suspension of rat brain). The format is biochemical. Particulars: for IC50: PEA substrate, 20 min preincubation, reaction 10 min. The method, then: The quantitative determination of the MAO, activity was made up by using, as enzyme source, a mitochrondrial suspension of the brain of a rat. The standard determination consists in preincubating the enzyme for 20 minutes in the absence then in the presence of the inhibitors. […] The operating method used is that of the protocol of P. C. Baker, Dev. Biol. 14, 267 (1966). The results expressed in terms of CI50 (50% inhibiting concentration) obtained with a certain number of derivatives (I) are shown in tables VII and VIII hereafter.

In data set [2] the target is T2, MAO-A (Rattus norvegicus, UniProt P21396).
T2 construct: using, as enzyme source, a mitochrondrial suspension of the brain of a rat; from tissue; host or cells: rat brain, mitochondrial suspension
T2 sequence (P21396 1-526): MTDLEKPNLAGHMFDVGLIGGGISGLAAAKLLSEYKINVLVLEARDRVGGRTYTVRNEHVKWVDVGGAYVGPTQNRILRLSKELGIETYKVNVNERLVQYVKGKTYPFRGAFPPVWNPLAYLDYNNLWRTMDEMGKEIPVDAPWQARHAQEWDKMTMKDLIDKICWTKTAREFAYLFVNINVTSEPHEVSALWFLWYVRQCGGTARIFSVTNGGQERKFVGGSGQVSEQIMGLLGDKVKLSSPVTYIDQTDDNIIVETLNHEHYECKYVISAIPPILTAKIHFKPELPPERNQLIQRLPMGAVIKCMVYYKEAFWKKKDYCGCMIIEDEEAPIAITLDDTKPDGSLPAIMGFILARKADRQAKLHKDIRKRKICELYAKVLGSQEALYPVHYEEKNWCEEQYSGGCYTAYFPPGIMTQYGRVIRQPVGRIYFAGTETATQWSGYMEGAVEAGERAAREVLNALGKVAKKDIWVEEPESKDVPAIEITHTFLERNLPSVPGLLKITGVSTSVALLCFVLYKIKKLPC
Kind of data set: In vitro inhibition of monoamine oxidase A (substrate serotonine, 5-HT; mitochondrial suspension of rat brain). Particulars: 5-HT substrate; for IC50: Table VII, 20 min preincubation, reaction 40 min; for inhibition at 1 µM: read-out: % of inhibition of MAO-A at a concentration of 10^-6 M, Table VIII, at a concentration of 10^-6 M. The data set is classed as biochemical. The protocol:
The quantitative determination of the MAO, activity was made up by using, as enzyme source, a mitochrondrial suspension of the brain of a rat. The standard determination consists in preincubating the enzyme for 20 minutes in the absence then in the presence of the inhibitors. The activities are determined by using respectively serotonine (5-HT) and phenylethylamine (PEA) as substrates of the MAO-A and of MAO-B, the reaction times being 40 minutes with 5-HT and 10 minutes with PEA. The operating method used is that of the protocol of P. C. Baker, Dev. Biol. 14, 267 (1966).
The results expressed in terms of CI50 (50% inhibiting concentration) obtained with a certain number of derivatives (I) are shown in tables VII and VIII hereafter.

In data set [3] the test system is mice. Particulars: mouse, in vivo, 1500 mg/kg.

For `N#CCCCn1nnc(-c2ccccc2)n1` [5-phenyl 2-tetrazole butyronitrile, reference compound], the “pharmacological activity: selective inhibition of MAO-B” value in data set [1] was “selective inhibitiopn of the monoamine oxidase of type B (MAO-B)”. For `N#CCCCCn1nnc(-c2ccccc2)n1` [5-phenyl 2-tetrazole valeronitrile, reference compound], the “pharmacological activity: selective inhibition of MAO-B” value in data set [1] is listed as “selective inhibitiopn of the monoamine oxidase of type B (MAO-B)”. For `N#CCCn1nnc(-c2ccc(OCc3cccc(Cl)c3)cc2)n1` [Code No. 1, 5-[4-(3-chlorobenzyloxy)phenyl] 2-tetrazole propanenitrile], the IC50 in data set [2] came to 150000 nM; in data set [1] (Table VII), 2.2 nM. The “toxicity after oral administration” value in data set [3] is “no toxicity was observed”. `N#CCCn1nnc(-c2ccc(OCc3ccccc3)cc2)n1` [Code No. 7]: the IC50 in data set [2] stood at 86000 nM; in data set [1] (Table VII) it was 2.3 nM. Besides, in data set [3], the “toxicity after oral administration” value was “no toxicity was observed”. In the case of `N#CCCn1nnc(-c2ccc(-c3ccccc3)cc2)n1` [compound 13], the IC50 in data set [2] was found to be 7800 nM. Consider `N#CCCCn1nnc(-c2ccc(-c3ccccc3)cc2)n1` [compound 14], for which the values for the IC50 in data set [2] and in data set [1] (Table VII) were 9600 nM and 1200 nM, respectively. For the compound `N#CCCCCCCn1nnc(-c2ccc(-c3ccccc3)cc2)n1` [compound 16], the IC50 in data set [2] amounted to 46000 nM; in data set [1] (Table VII) it was 5400 nM. `OCCn1nnc(-c2ccc(OCc3ccccc3)cc2)n1` [compound 17]: the “toxicity after oral administration” value in data set [3] is recorded as “no toxicity was observed”. Turning to `OCCn1nnc(-c2ccc(OCc3ccccc3Cl)cc2)n1` [compound 18], the IC50 in data set [2] worked out at 88000 nM; in data set [1] (Table VII) it was 5.5 nM. For the compound `OCCn1nnc(-c2ccc(OCc3cccc(Cl)c3)cc2)n1` [compound 19], in data set [3], the “toxicity after oral administration” value is “no toxicity was observed”. On to `OCCn1nnc(-c2ccc(OCc3ccc(Cl)cc3)cc2)n1` [compound 20], for which the IC50 amounted to 60000 nM in data set [2] and 8 nM in data set [1] (Table VII). Turning to `OCCn1nnc(-c2ccc(OCc3ccc(Cl)c(Cl)c3)cc2)n1` [compound 23], the IC50 in data set [2] was found to be 140000 nM; in data set [1] (Table VII), 24 nM. In the case of `OCCCCCCn1nnc(-c2ccc(-c3ccccc3)cc2)n1` [compound 27], the IC50 in data set [2] was found to be 80000 nM; in data set [1] (Table VII) it was 16400 nM.

As to `N#CCn1nnc(-c2ccc(OCc3ccccc3)cc2)n1` [compound 29], the inhibition at 1 µM in data set [2] is 3%. In addition, inhibition in data set [1] (Table VIII) was half-maximal at 100 nM (IC50). Compound `COCn1nnc(-c2ccc(OCc3ccccc3)cc2)n1` [compound 30] displayed an IC50 in data set [1] (Table VII) of 1600 nM. In data set [1] (Table VIII), `Cc1ccc(COc2ccc(-c3nnn(CC#N)n3)cc2)cc1` [compound 31] gave an IC50 of 1600 nM.

With `Cc1ccc(COc2ccc(-c3nnn(CCC#N)n3)cc2)cc1` [compound 32], in data set [1] (Table VII), the IC50 is 570 nM. For `Cc1ccc(COc2ccc(-c3nnn(CCO)n3)cc2)cc1` [compound 33], in data set [2], the inhibition at 1 µM is 0%. This compound also yielded an IC50 in data set [1] (Table VIII) of 8000 nM. On to `Cc1cccc(COc2ccc(-c3nnn(CCC#N)n3)cc2)c1` [compound 35], for which the inhibition at 1 µM in data set [2] turned out to be 5%. The compound further showed an IC50 in data set [1] (Table VIII) of 200 nM.

On to `Cc1cccc(COc2ccc(-c3nnn(CCO)n3)cc2)c1` [compound 36], for which, in data set [2], the inhibition at 1 µM is 2%. The compound also returned an IC50 in data set [1] (Table VIII) of 300 nM. The like results for `Cc1ccccc1COc1ccc(-c2nnn(CC#N)n2)cc1` [compound 37] were, in that order, 10% and 160 nM. The like results for `Cc1ccccc1COc1ccc(-c2nnn(CCC#N)n2)cc1` [compound 38] were, in that order, 6% and 110 nM.

Take `Cc1ccccc1COc1ccc(-c2nnn(CCO)n2)cc1` [compound 39]: the inhibition at 1 µM in data set [2] worked out at 3%. Further, the IC50 in data set [1] (Table VIII) came to 290 nM. For the compound `COc1ccc(COc2ccc(-c3nnn(CCC#N)n3)cc2)cc1` [compound 41], in data set [2], the inhibition at 1 µM amounted to 9%. The compound further showed an IC50 in data set [1] (Table VIII) of 3400 nM. For the compound `COc1ccc(COc2ccc(-c3nnn(CCO)n3)cc2)cc1` [compound 42], 4700 nM corresponded to half-maximal inhibition in data set [1] (Table VII) (IC50). Regarding `COc1cccc(COc2ccc(-c3nnn(CCC#N)n3)cc2)c1` [compound 44], the inhibition at 1 µM in data set [2] was 0%. The compound also returned an IC50 in data set [1] (Table VIII) of 400 nM. On to `COc1cccc(COc2ccc(-c3nnn(CCO)n3)cc2)c1` [compound 45], for which the inhibition at 1 µM in data set [2] turned out to be 7%. The compound further had an IC50 in data set [1] (Table VIII) of 800 nM. For the compound `N#CCn1nnc(-c2ccc(OCc3ccc(F)cc3)cc2)n1` [compound 46], the inhibition at 1 µM in data set [2] came out at 6%. In data set [1] (Table VIII), this compound gave an IC50 of 170 nM. As for `N#CCCn1nnc(-c2ccc(OCc3ccc(F)cc3)cc2)n1` [compound 47], the inhibition at 1 µM in data set [2] is 2%. In data set [1] (Table VIII), this compound had an IC50 of 210 nM.

Take `OCCn1nnc(-c2ccc(OCc3ccc(F)cc3)cc2)n1` [compound 48]: in data set [2], the inhibition at 1 µM is 2%. The IC50 in data set [1] (Table VIII) was found to be 270 nM. For `Cc1ccc(COc2ccc(-c3nnnn3CC#N)cc2)cc1` [compound 50], in that order: 12% and 15 nM.

As for `COc1ccc(COc2ccc(-c3nnnn3CCO)cc2)cc1` [compound 51], the IC50 worked out at 890 nM in data set [1] (Table VII) and 900 nM in data set [1] (Table VIII).

In the case of `N#CCn1nnnc1-c1ccc(OCc2ccc(F)cc2)cc1` [compound 52], the inhibition at 1 µM in data set [2] was found to be 15%. Inhibition in data set [1] (Table VIII) was half-maximal at 24 nM (IC50).

Take `OCCn1nnnc1-c1ccc(OCc2ccc(F)cc2)cc1` [compound 53]: the inhibition at 1 µM in data set [2] amounted to 3%. The midpoint of inhibition in data set [1] (Table VIII), the IC50, lay at 360 nM.

`N#CCCn1nc(-c2ccc(OCc3ccccc3)cc2)oc1=O` [compound 54] returned an IC50 in data set [1] (Table VII) of 6.4 nM.

For the compound `N#CCCn1nc(-c2ccc(OCc3ccccc3)cc2)oc1=S` [compound 55], in data set [1] (Table VII), the concentration for half-maximal inhibition (IC50) is 9.3 nM. `N#CCCn1nc(-c2ccc(OCc3ccccc3)cc2)sc1=O` [compound 56] came in with an IC50 in data set [1] (Table VII) of 16 nM.

On to `N#CCCn1nc(-c2ccc(OCc3ccccc3)cc2)sc1=S` [compound 57], for which, in data set [1] (Table VII), the IC50 came to 62 nM. In the case of `OCCn1nnnc1-c1ccc(OCc2ccccc2I)cc1` [compound 58], the inhibition at 1 µM in data set [2] is 3%. In data set [1] (Table VIII), this compound showed an IC50 of 3600 nM. With `N#CCn1nnnc1-c1ccc(OCc2ccccc2)cc1` [compound 59], in data set [2], the inhibition at 1 µM came to 4%. The midpoint of inhibition in data set [1] (Table VIII), the IC50, lay at 67 nM. The like results for `Cc1ccccc1COc1ccc(-c2nnnn2CCC#N)cc1` [compound 60] were, in that order, 17% and 480 nM. With `Cc1cccc(COc2ccc(-c3nnnn3CCC#N)cc2)c1` [compound 61], the inhibition at 1 µM in data set [2] came to 1%. The compound also yielded an IC50 in data set [1] (Table VIII) of 270 nM. For the compound `CN(C)CCn1nnc(-c2ccc(OCc3ccccc3)cc2)n1` [compound 64], the inhibition at 1 µM in data set [2] amounted to 15%. In addition, the IC50 in data set [1] (Table VIII) came to 280 nM. For `BrCCn1nnc(-c2ccc(OCc3ccccc3)cc2)n1` [compound 65], in that order: 4% and 90 nM.

Turning to `CC(=O)NCCn1nnc(-c2ccc(OCc3ccccc3)cc2)n1` [compound 66], the inhibition at 1 µM in data set [2] was found to be 3.7%. This compound yielded an IC50 in data set [1] (Table VIII) of 1500 nM. As for `NCCn1nnc(-c2ccc(OCc3ccccc3)cc2)n1` [compound 68], the inhibition at 1 µM in data set [2] was found to be 6%. In addition, the IC50 in data set [1] (Table VIII) is 70 nM.

A word on the IC50: it is the midpoint of a concentration-inhibition curve. A low value points to higher potency.
